Reference: US5714361A, “Phosphatase/phosphodiesterase enzyme inhibitors and methods” (priority 1994, dated 1998)

Columns and labels:
[1] = molecular target: human prostatic acid phosphatase (PAP) (Homo sapiens, UniProt P15309); test: Time-dependent inactivation of prostatic acid phosphatase (residual activity with PNPP); format: biochemical; settings: for time-dependent inactivation of PAP: incubation with PAP (2 μg/mL), 100 mM sodium acetate buffer pH 5.0, 25° C.; for protection of PAP against inactivation by FMPP: competitive inhibitors of PAP added
Sequence of human prostatic acid phosphatase (PAP) (P15309 33-386): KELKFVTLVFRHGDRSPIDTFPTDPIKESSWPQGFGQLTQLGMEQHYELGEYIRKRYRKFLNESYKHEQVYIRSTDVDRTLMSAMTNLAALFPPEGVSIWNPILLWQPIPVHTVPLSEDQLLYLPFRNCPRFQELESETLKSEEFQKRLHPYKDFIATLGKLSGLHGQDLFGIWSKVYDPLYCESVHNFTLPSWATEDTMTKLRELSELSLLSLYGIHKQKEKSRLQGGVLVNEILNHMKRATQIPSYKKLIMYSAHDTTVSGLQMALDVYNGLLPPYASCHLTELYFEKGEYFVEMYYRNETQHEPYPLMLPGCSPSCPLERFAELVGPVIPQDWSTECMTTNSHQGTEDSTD
Procedure: Reactions were performed by incubating 1 or 9 with PAP (2 μg/mL) in 100 mM sodium acetate buffer pH 5.0 at 25° C. Residual PAP activity was determined by removing 20 μL aliquots and adding them to a 1 mL solution of 3.0 mM p-nitrophenyl phosphate (PNPP) in 100 mM sodium acetate buffer pH 5.0. After 5 minutes in PNPP, the reactions were quenched with 100 μL of 1.25N NaOH. p-Nitrophenoxide concentration was quantitated from the absorbance at 405 nm, using an extinction coefficient of 18,000 M-1 cm-1. (A) Residual PAP activity after incubation with varying concentrations of 1; 5.0 mM (filled circles), 500 μM (open squares), 125 μM (open triangles), 70 μM (filled diamonds), and 50 μM (open circles). (B) Residual PAP activity after treatment with 6.6 mM FMPP (open triangles), or 23 mM of the phosphonate (15 X Ki) (closed circles).
In this experimental, human prostatic acid phosphatase (PAP) was used as a model enzyme. […] This phosphatase is an important diagnostic marker for prostate cancer, and there is evidence that it may be involved in the regulation of androgen receptor activity in prostate cells.

YOP 51 = YOP 51 (Yersinia enterocolitica, UniProt P15273); test: Time-dependent inactivation testing with YOP 51; format: biochemical; settings: incubated in a fashion similar to FIG. 1
Sequence of YOP 51 (P15273 whole entry): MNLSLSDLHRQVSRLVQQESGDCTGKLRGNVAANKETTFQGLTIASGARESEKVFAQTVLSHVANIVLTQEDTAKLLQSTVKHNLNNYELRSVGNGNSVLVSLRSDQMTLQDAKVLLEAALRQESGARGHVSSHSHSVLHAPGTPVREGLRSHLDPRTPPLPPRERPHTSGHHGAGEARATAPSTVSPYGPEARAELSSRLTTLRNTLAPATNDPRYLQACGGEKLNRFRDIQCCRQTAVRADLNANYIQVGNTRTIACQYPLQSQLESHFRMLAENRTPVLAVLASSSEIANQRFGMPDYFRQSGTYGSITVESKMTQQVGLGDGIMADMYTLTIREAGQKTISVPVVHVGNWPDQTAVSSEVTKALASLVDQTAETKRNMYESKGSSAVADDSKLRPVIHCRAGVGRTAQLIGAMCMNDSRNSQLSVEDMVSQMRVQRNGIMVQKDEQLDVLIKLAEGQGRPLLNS

O=P(O)(O)Oc1ccc(CF)cc1 [FMPP, 4-(fluoromethyl)phenyl phosphate]
KI (inactivation) ([1]; read-out: Ki (saturation kinetics of the inactivation process), purified PAP): 150 µM

C=C(Br)OP(=O)(OCC)OCC [XVI, Diethyl 1-Bromovinyl Phosphate]
inactivation of YOP 51 (YOP 51): succesful inactivation of the enzyme

O=P(O)(O)Oc1ccc(CBr)cc1 [bromo analogue of FMPP]
time-dependent inactivation of PAP [1]: proved to inactivate the PAP enzyme

O=P(O)(O)Oc1ccc(CCl)cc1 [chloro analogue of FMPP]
time-dependent inactivation of PAP [1]: proved to inactivate the PAP enzyme

O=P(O)(O)O [inorganic phosphate, reference compound]
protection of PAP against inactivation by FMPP [1]: protect against inactivation

O=[N+]([O-])c1cc(CCl)ccc1OP(=O)(O)O [ortho-nitro chloro analogue of FMPP]
potency of PAP inactivation relative to FMPP or its analogues [1]: substantially greater potency
time-dependent inactivation of PAP [1]: succesfully inactivated the PAP enzyme

O=C(O)C(O)C(O)C(=O)O (centres unmarked) [tartaric acid, reference compound]
protection of PAP against inactivation by FMPP [1]: protect against inactivation
